Measured values taken from article PMC12763877 (Journal of Experimental & Clinical Cancer Research : CR, 2025).

How the values were obtained:
zebrafish embryos = assay: Zebrafish embryo toxicity; format: in vivo, zebrafish (Danio rerio); settings: embryos exposed 12 to 48 hpf, survival
Procedure: Transgenic zebrafish Tg(flk: EGFP) were obtained from the China Zebrafish Resource Center and maintained at 28 ± 1 °C under a 14-hour light/10-hour dark cycle. […] Survival rates were recorded to calculate the median lethal concentration (LC₅₀). For the retinal angiogenesis assay, embryos at 1 day post fertilization (dpf) were transferred to E3 medium containing 5 mM CoCl₂·6 H₂O and 2.5 µg/mL GS4012 to induce hypoxia and abnormal vessel formation. At 3 dpf, test compounds were added and incubation continued until 5 dpf. Blank, model, and vehicle (≤ 0.1% DMSO) controls were included, with at least three replicates per group (n = 10–15 embryos). At 5 dpf, retinal vasculature was imaged using fluorescence microscopy and analyzed for branching number, vessel length, and density using ImageJ. Data are presented as mean ± standard deviation (SD) and analyzed using one-way ANOVA followed by Tukey’s post hoc test, with p < 0.05 considered statistically significant.
The zebrafish (Danio rerio) model was employed due to its distinct advantages, the optical transparency, which enable in vivo vascular visualization. […] Firstly, the 8 candidate compounds underwent preliminary toxicity evaluation in zebrafish embryos. […] At 48 hpf, the number of surviving embryos was quantified, and the lethal dose 50 (LD50) for each compound was determined based on the survival data. […]

APLNR = target: T1, APLNR (Homo sapiens, UniProt P35414); parameters: expressed in transfected cells; host or cells: HEK293; settings: cited from earlier work
T1 sequence (P35414 1-380): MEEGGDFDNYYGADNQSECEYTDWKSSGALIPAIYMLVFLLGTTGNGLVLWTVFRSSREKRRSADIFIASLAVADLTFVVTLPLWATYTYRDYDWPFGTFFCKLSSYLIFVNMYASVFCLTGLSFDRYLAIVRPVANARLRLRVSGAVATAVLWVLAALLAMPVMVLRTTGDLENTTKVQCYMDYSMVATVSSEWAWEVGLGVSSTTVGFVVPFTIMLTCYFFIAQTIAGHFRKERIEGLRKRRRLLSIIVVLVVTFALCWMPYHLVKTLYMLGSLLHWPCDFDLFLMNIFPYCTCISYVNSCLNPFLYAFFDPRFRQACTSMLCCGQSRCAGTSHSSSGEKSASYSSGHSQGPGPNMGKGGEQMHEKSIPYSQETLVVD

[1] = tested on: pathological choroidal neovascularization; parameters: method as in PMID 30208056; settings: mouse model; cited from earlier work
HUVEC [2] = assay: Tube formation assay; format: cell-based, human; settings: candesartan 15, 7.5, 3.75 µM; sunitinib 2 µM
Procedure: The 96-well plate was coated with 50 µl matrix glue per well, and then HUVEC was inoculated into the 96-well plate coated with matrix glue with a density of 4 × 10^4 cells per well. Photos were taken with an optical microscope (Nikon, China) after culture at 37℃ and 5% CO2 for 6–8 h, and the length of the generated blood vessels was analyzed using ImageJ.

[3] = tested on: FAK-MMP9 signaling in HUVEC; assay: Western blot of FAK and MMP-9; format: cell-based, human
Procedure: (§1) Total protein was extracted using RIPA lysis buffer (Solarbio, China) supplemented with phenylmethylsulfonyl fluoride (PMSF; Thermo Fisher Scientific, USA), protease inhibitor cocktail (Roche, Switzerland), and phosphatase inhibitor cocktail (Roche, Switzerland). Protein concentration was determined using a BCA protein assay kit (Thermo Fisher Scientific, USA). Equal amounts of protein were separated by 10% SDS-polyacrylamide gel electrophoresis (SDS-PAGE) and transferred onto nitrocellulose (NC) membranes. […] All primary antibodies were purchased from Cell Signaling Technology (CST, USA), except for GAPDH, which was obtained from Proteintech (Wuhan, China). After washing, the membranes were incubated with HRP-conjugated goat anti-rabbit or anti-mouse IgG secondary antibodies (Biosharp, China) for 1 h at room temperature. Protein bands were visualized using an enhanced chemiluminescence (ECL) detection system and scanned using a chemiluminescence imaging system.

HUVEC [4] = assay: Wound healing and Transwell assays; format: cell-based, human; settings: candesartan 15, 7.5, 3.75 µM; sunitinib 2 µM; 48 h
Procedure: HUVEC cells were digested and inoculated into 6-well plates, with 1 × 10^5 cells added to each hole. On the second day, the gun head was drawn vertically along the edge of the upper lid of the hole plate. The cells were washed twice with PBS, the scratched cells were removed, and the serum free medium containing drugs was added. The photos were taken and recorded under the microscope for 0 h and cultured in a 5% CO2 incubator at 37℃. After 48 h, the sample was taken and photographed for recording. The cell scratch area was calculated with Image J software.
Migration assays were performed using the Transwell cell culture insert. HUVEC (3 × 10^4 cells) were suspended with 100µL serum-free medium containing different concentrations of compounds and placed in the upper layer of the Transwell cell culture insert, and 300µL medium containing 10% FBS was placed below the cell-permeable membrane. Following an incubation (48 h), the cells that had migrated through the membrane were stained with 0.2% crystal violet for 30 min and count.

HUVEC [5] = assay: DNA damage: γ-H2AX western blot and alkaline comet assay; format: cell-based, human
Procedure: as §1

[6] = tested on: STING signaling pathway in HUVEC; assay: Western blot of STING pathway proteins; format: cell-based, human; settings: NAC 5 mM pretreatment 2 h + candesartan 15 µM 48 h
Procedure: as §1

With `CSCC[C@H](NC(=O)[C@@H]1CCCN1C(=O)CNC(=O)[C@H](CCCCN)NC(=O)[C@H](Cc1c[nH]cn1)NC(=O)[C@H](CO)NC(=O)[C@H](CC(C)C)NC(=O)[C@H](CCCNC(=N)N)NC(=O)[C@@H]1CCCN1C(=O)[C@H](CCCNC(=N)N)NC(=O)[C@@H](N)CCC(N)=O)C(=O)N1CCC[C@H]1C(=O)N[C@@H](C)C(=O)O` [Compound F13A] as the compound, how does the “LD50(µM,48 h)” value (zebrafish embryos) read?
The value was 2.85 ± 0.31 µM.

Which “Inhibition of APLN/APLNR signaling” value (APLNR) does the source give for `CCN(CC)Cc1cc(Nc2ccnc3cc(Cl)ccc23)ccc1O` [Amodiaquine] here?
Its value is “inhibits APLN/APLNR signaling in a concentration-dependent manner”.

And the Pathological choroidal neovascularization [1]?
Its Pathological choroidal neovascularization is “reduces pathological choroidal neovascularization”.

For `CCN(CC)CCNC(=O)c1c(C)[nH]c(/C=C2\C(=O)Nc3ccc(F)cc32)c1C` [Sunitinib], which “Tube formation: mean mesh size and total mesh area” value (HUVEC [2]) is on record?
Its value is “increase the mean mesh and the total meshe area”.

What about the “Tube formation: number of junctions, total segment length, number of meshes” value (HUVEC [2]) of the same compound?
The value was “significantly reduced the number of junctions, total segment length, and the number of meshes”.

And the “Expression of MMP9 and FAK” value [3]?
Its value is “significantly decreased the expression of MMP9 and FAK”.

What about the “Migratory and invasive capacities of HUVECs” value (HUVEC [4]) of the same compound?
Its value is “significantly reduced the migratory and invasive capacities of HUVECs”.

What does the source list for `CC(=O)N[C@@H](CS)C(=O)O` [NAC, N-acetylcysteine]?
Effect on candesartan-induced γ-H2AX expression (HUVEC [5]; NAC 5 mM + candesartan 15 µM): significantly reduced γ-H2AX expression; Effect on candesartan-induced DNA damage (comet assay) (HUVEC [5]; NAC 5 mM pre-treatment + candesartan 15 µM): effectively mitigate candesartan-induced DNA damage; Effect on candesartan-induced STING pathway upregulation [6]: attenuated candesartan-induced upregulation of STING pathway components
